This is an account of results in patent publication US20130005728A1, “SUBSTITUTED PYRIMIDINES AS PROSTAGLANDIN D2 RECEPTOR ANTAGONISTS” (AVENTIS PHARMACEUTICALS INC., priority 2010, published 2013).

Molecules are shown by their SMILES. Where a name gives a salt, the structure may show the parent alone.

One test concerns the target T1, human prostaglandin D2 receptor (DP) (DP1) (Homo sapiens, UniProt Q13258).
T1 construct: endogenous in cells; host or cells: human platelets in platelet-rich plasma from donor blood
T1 sequence (Q13258 1-359): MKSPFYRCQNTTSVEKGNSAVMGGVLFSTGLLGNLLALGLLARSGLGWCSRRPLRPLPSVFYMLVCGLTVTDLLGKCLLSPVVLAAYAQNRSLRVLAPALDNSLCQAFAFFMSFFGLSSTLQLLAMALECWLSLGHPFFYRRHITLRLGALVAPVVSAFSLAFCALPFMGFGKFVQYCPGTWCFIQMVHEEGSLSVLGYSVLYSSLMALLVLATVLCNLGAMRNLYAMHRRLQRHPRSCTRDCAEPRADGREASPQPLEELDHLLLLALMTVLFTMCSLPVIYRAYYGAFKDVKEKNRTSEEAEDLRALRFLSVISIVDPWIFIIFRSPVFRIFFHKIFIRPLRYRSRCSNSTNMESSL
Description: Antagonist activity on BW245C-induced cAMP accumulation in human platelet rich plasma (hPRP) by HTRF cAMP assay. Type of test: cell-based. To be noted: inhibition of BW245C (25 nM)-induced cAMP accumulation in human platelet rich plasma; compound tested as HCl salt; read-out: hPRP IC50 (as HCl salt). The source says:
Assessment of Antagonist Activities of Compounds on BW245C-induced cAMP Accumulation in Human Platelet Rich Plasma (hPRP) by HTRF cAMP Assay
The purpose of the assay is to assess compound antagonist activity at the human prostaglandin D2 receptor (DP) (DP1) in the presence of plasma proteins. DP is a Gs-protein coupled receptor, the activation of which induces cAMP accumulation. BW245C is a DP selective agonist. Therefore, by measuring inhibition of BW245C-induced 3′-5′-cyclic adenosine monophosphate (cAMP) accumulation in human platelet-rich plasma (PRP), the assay enables us to identify or confirm antagonist compounds at the human DP and/or IP receptors.
The principle of the assay is based on HTRF technology (Homogeneous Time-Resolved Fluorescence). The method is a competitive immunoassay between native cAMP produced by cells and the tracer cAMP labeled with the dye d2. The tracer is visualized by a monoclonal antibody anti-cAMP labeled with cryptate. The specific signal (i.e. energy transfer) is inversely related to the concentration of cAMP in the standards or samples. The assay was carried out using the cAMP HiRange HTRF kit from Cisbio (catalog number 62AM6PEB, 888-963-4567).
Preparation of Human Platelet Rich Plasma (hPRP): Human blood was obtained from sanofi-aventis on-site blood donor panel. The blood was gently transferred from the blood bag into a 50 ml centrifuge tube and centrifuged at 223×g (1000 rpm) for 15 minutes without break. The top layer (PRP) was aspirated slowly and transferred to a 250 ml centrifuge tube. The PRP was placed in the cell culture hood for approximately 30 minutes before use.
Preparation of IBMX: IBMX is a phosphodiesterase (PDE) inhibitor and is included in the assay to prevent breakdown of cAMP. 1M IBMX stock was prepared in DMSO. 20 μL of 1M IBMX stock was then added into 30 μL of DMSO to obtain a 400 mM IBMX DMSO solution. This was further diluted 1:50 in 0.9% sodium chloride to obtain an 8 mM IBMX working solution. The solution was sonicated for 60 minutes before use.
Preparation of BW245C: 10 mM BW245C stock was prepared in DMSO and aliquots were stored at −80° C. On the day of the assay, 10 mM BW245C stock was diluted 1 to 400 in DMSO to make a 25 μM solution. 100 μL of the 25 μM BW245C solution was added to 4900 μL of 0.9% sodium chloride to make a 500 nM working solution.
Dilution of compounds: 10 mM compound DMSO stock solutions were serially diluted 1:3 in DMSO in a 96-well plate to achieve 11 different concentrations ranging from 10 mM to 0.00017 mM. A further 1:20 dilution in 0.9% sodium chloride solution was carried out for each concentration to obtain working concentrations ranging from 500 μM to 0.0085 μM (11 points) for each compound. For positive and negative controls, DMSO (without compound) was diluted 1:20 in 0.9% sodium chloride solution.
Preparation of cAMP standards, cAMP-d2 and anti-cAMP cryptate (all in the assay kit): cAMP standard was reconstituted by adding distilled water according to the manufacturer's instruction (456 μL of water usually). The reconstituted cAMP standard was serially diluted 1:4 in 0.9% sodium chloride solution to achieve 11 different concentrations. cAMP-d2 was reconstituted by adding 2 mL of distilled water and then further diluting it in 8 mL of lysis buffer (in the kit). Anti-cAMP cryptate was reconstituted by adding 1.1 mL of distilled water and then further diluting it in 4.4 mL of lysis buffer.
Assay Procedure: In the assay, each compound was run in duplicate. The final assay volume was 50 μl in each well.
In the assay plate, 42 μL of platelet rich plasma (PRP) was added in each well. This was followed by the addition in each well of 2.5 μL of 8 mM IBMX (final concentration 400 μM) and 3 μL of diluted compound at varying concentrations (final concentrations ranging from 30,000 nM to 0.51 nM, 11 points for each compound). In the positive and negative control wells, 3 μL of diluted DMSO solution was added instead of compound. […]
Take `COc1nc(NCCc2ccc(OC(F)(F)F)cc2)cc(N2CCCCC2C(=O)O)n1` (stereo not drawn) [Example 3, 1-{2-Methoxy-6-[2-(4-trifluoromethoxy-phenyl)-ethylamino]-pyrimidin-4-yl}-piperidine-2-carboxylic acid trifluoroacetate]: the IC50 turned out to be 885 nM.

In the case of `COc1nc(NCCc2ccc(OC(F)(F)F)cc2)cc(N2CCOCC2)n1` [Example 5, (2-Methoxy-6-morpholin-4-yl-pyrimidin-4-yl)-[2-(4-trifluoromethoxy-phenyl)-ethyl]-amine], the 50% inhibitory concentration (IC50) amounted to 1180 nM.

The test is the same for the next values; noted with them: inhibition of BW245C (25 nM)-induced cAMP accumulation in human platelet rich plasma; read-out: hPRP IC50.
Take `COc1nc(NCCc2ccc(OC(F)(F)F)cc2)cc(N2C[C@@H](C(=O)O)[C@H](c3ccccc3OC)C2)n1` (racemic) [Example 15, (±)-trans-4-(2-Methoxy-phenyl)-1-{2-methoxy-6-[2-(4-trifluoromethoxy-phenyl)-ethylamino]-pyrimidin-4-yl}-pyrrolidine-3-carboxylic acid]: the IC50 was 436 nM.

For `COc1nc(NCCc2ccc(OC(F)(F)F)cc2)cc(N2CCOC(C(=O)O)C2)n1` (stereo not drawn) [Example 1, 4-{2-Methoxy-6-[2-(4-trifluoromethoxy-phenyl)-ethylamino]-pyrimidin-4-yl}-morpholine-2-carboxylic acid trifluoroacetate], the half-inhibitory concentration (IC50) amounted to 10 nM.

Regarding `COc1nc(NCCc2ccc(OC(F)(F)F)cc2)cc(N2CCN(CC(=O)O)CC2)n1` [Example 2, (4-{2-Methoxy-6-[2-(4-trifluoromethoxy-phenyl)-ethylamino]-pyrimidin-4-yl}-piperazin-1-yl)-acetic acid tristrifluoroacetate], the IC50 came out at 368 nM.

Take `COc1nc(NCCc2ccc(OC(F)(F)F)cc2)cc(N2CCCCC2CC(=O)O)n1` (stereo not drawn) [Example 4, (1-{2-Methoxy-6-[2-(4-trifluoromethoxy-phenyl)-ethylamino]-pyrimidin-4-yl}-piperidin-2-yl)-acetic acid trifluoroacetate]: the IC50 came to 32 nM.

With `CCOC(=O)N1CCN(c2cc(NCCc3ccc(OC(F)(F)F)cc3)nc(OC)n2)CC1` [Example 6], the IC50 came to 609 nM.

Consider `COc1nc(NCCc2ccc(OC(F)(F)F)cc2)cc(N2CCC(C)(C(=O)O)C2)n1` (stereo not drawn) [Example 7, 1-{2-Methoxy-6-[2-(4-trifluoromethoxy-phenyl)-ethylamino]-pyrimidin-4-yl}-3-methyl-pyrrolidine-3-carboxylic acid], for which the IC50 worked out at 317 nM.

For `COc1nc(NCCc2ccc(OC(F)(F)F)cc2)cc(N2C[C@@H](C(=O)O)[C@H](C(C)C)C2)n1` [Example 8, (3S,4S)-4-Isopropyl-1-{2-methoxy-6-[2-(4-trifluoromethoxy-phenyl)-ethylamino]-pyrimidin-4-yl}-pyrrolidine-3-carboxylic acid], the IC50 stood at 376 nM.

Consider `COc1nc(NCCc2ccc(OC(F)(F)F)cc2)cc(N2CCC(C(=O)O)C2)n1` (stereo not drawn) [Example 9, 1-{2-Methoxy-6-[2-(4-trifluoromethoxy-phenyl)-ethylamino]-pyrimidin-4-yl}-pyrrolidine-3-carboxylic acid], for which the 50% inhibitory concentration (IC50) was 575 nM.

With `COc1nc(NCCc2ccc(OC(F)(F)F)cc2)cc(N2C[C@H](C(=O)O)[C@@H](c3ccccc3)C2)n1` [Example 10, (3R,4S)-1-{2-Methoxy-6-[2-(4-trifluoromethoxy-phenyl)-ethylamino]-pyrimidin-4-yl}-4-phenyl-pyrrolidine-3-carboxylic acid], the IC50 amounted to 28 nM.

For the molecule `COc1ccc([C@H]2CN(c3cc(NCCc4ccc(OC(F)(F)F)cc4)nc(OC)n3)C[C@@H]2C(=O)O)cc1` [Example 11, (3R,4S)-4-(4-Methoxy-phenyl)-1-{2-methoxy-6-[2-(4-trifluoromethoxy-phenyl)-ethylamino]-pyrimidin-4-yl}-pyrrolidine-3-carboxylic acid], the IC50 was 409 nM.

For the molecule `COc1nc(NCCc2ccc(OC(F)(F)F)cc2)cc(N2CCc3ccccc3C2)n1` [Example 12, [6-(3,4-Dihydro-1H-isoquinolin-2-yl)-2-methoxy-pyrimidin-4-yl]-[2-(4-trifluoromethoxy-phenyl)-ethyl]-amine trifluoroacetic acid salt], the IC50 stood at 1220 nM.

For `COc1nc(NCCc2ccc(OC(F)(F)F)cc2)cc(N2CCN(c3ccccc3)CC2)n1` [Example 13, [2-Methoxy-6-(4-phenyl-piperazin-1-yl)-pyrimidin-4-yl]-[2-(4-trifluoromethoxy-phenyl)-ethyl]-amine], the IC50 is 397 nM.

As for `COc1nc(NCCc2ccc(OC(F)(F)F)cc2)cc(N2CC[C@H](CC(=O)O)C2)n1` [Example 14, ((R)-1-{2-Methoxy-6-[2-(4-trifluoromethoxy-phenyl)-ethylamino]-pyrimidin-4-yl}-pyrrolidin-3-yl)-acetic acid], the IC50 was found to be 713 nM.

Usually IC50 stands for the concentration that inhibits the measured activity by half.
